{"source": "patent US20130023504A1", "about": "“Modulation of Prostaglandin/Cyclooxygenase Metabolic Pathways” (HUNTER-FLEMING LIMITED, priority 2006, published 2013)", "type_in_all_cases": "cell-based", "key": {"PC-12 cells": {"test_system": "PC-12 cells", "experiment": "Ischaemia (oxygen-glucose deprivation)-induced cell death in NGF-differentiated PC-12 cells, Trypan Blue exclusion", "details": "for decrease in cell death: vs. ischemia alone", "method": "PC-12 cells were maintained on flasks coated with Collagen typel in PC-12 media with the following composition; RPMI 1640 without L-glutamine with 2 mM L-glutamine, 10 mM HEPES, 1 mM Sodium Pyruvate, additional glucose to give a final concentration of 4.5 g/L (RPMI normally has 2 g/L), 10% heat inactivated horse serum, 5% foetal calf serum and 50 units of penicillin/streptomycin. Media was changed every 2 days.\nConfluent cultures of PC-12 cells were differentiated by culturing for 7 days in PC-12 medium without serum but with 50 ng/mlNGF (PC-12 NGF media). The cells were harvested, washed, counted and 1×10^5 PC-12 cells/well were plated overnight in a micro titre plate in glucose free PC-12 NGF medium. The medium was then changed to glucose-free PC-12 NGF medium containing the compounds to be tested and the plates left under normoxic conditions for 30 minutes.\nDuring this stage, the media and test substances for the anoxic exposure were placed in a chamber and de-oxygenated with 95% N2/5% CO2. The media in the plates was changed with the de-oxygenated media and the plates then placed in an anaerobic chamber gassed with 95% N2 5% CO2 for 10 minutes before being sealed and incubated at 37° C. overnight (18 hours). For normoxia controls, the cells were treated identically to ischemic treatments except that all incubations were in 5% CO2/95% air.\nViability was determined using Trypan Blue exclusion."}, "rat sensory neurones [1]": {"test_system": "rat sensory neurones", "experiment": "Cisplatin-induced loss of neurite density in primary dorsal root ganglia sensory neurones (anti β-Tubulin)", "details": "10 ng/ml, cisplatin 3 μg/ml", "method": "(§1) Primary cultures of dissociated dorsal root ganglia sensory neurones were incubated with 3 μg/ml cisplatin, with and without 7β-OH EPIA for 48 hours and 72 hours and the following parameters were evaluated:\nneurite network density stained with an anti 8-Tubulin antibody\n(§2) Rat sensory neurones were prepared according to the method described by Hall et al 1997 [Hall et al. (J. Neurosci. 1997 Apr. 15; 17(8); 2775-84]. Briefly, a female rat (15 days gestation) was killed by cervical dislocation (Rats Wistar; Janvier, Le Genest-St-lsle, France) and the foetuses removed from the uterus. Their spinal cords with the dorsal root ganglia (DRG) were removed and placed in ice-cold medium of Leibovitz (L15, Fisher 11415-049) containing Penicillin 50 UI/ml-Streptomycin 50 μg/ml (PS, 1%) and bovine serum albuminutes (BSA 1%, Sigma A6003). The DRG were recovered and dissociated by trypsinisation for 20 minutes at 37° C. (trypsin EDTA 10×, 10%, Fisher 15400054) diluted in PBS without calcium and magnesium (Fisher 2007-03). The reaction was stopped by addition of Dulbecco modified Eagle medium (DMEM, Fisher 21969-035) containing DNase I grade II (0.1 mg/ml Roche diagnostic 104159) and foetal bovine serum (FBS 10%, Fisher 10270-098). The cell suspension was triturated with a 10 ml pipette and centrifuged at 350×g for 10 minutes at room temperature. The pellet of dissociated cells was then resuspended in defined culture medium.\n(§3) Viable cells were counted in a Neubauer cytometer using the trypan blue exclusion test (Sigma) and seeded at a density of 30 000 cells/well in 96 well-plates (Nunc). Wells were pre-coated with poly-L-lysine (10 μg/ml, Sigma P2636) in ultra pure sterile water (Merck Eurolab 60759.01).\n(§4) Cells were allowed to adhere for 2 h and maintained in a humidified incubator at 37° C. in 5% CO2/95% air atmosphere.\n(§5) After 5 days of culture, the culture medium was changed into a defined culture medium following the different conditions described below:\n(§6) Test compound 7β-OH EPIA (1 nM, 10 nM and 100 nM)+cisplatin (3 μg/ml)\n(§7) Reference compound NGF (10 ng/ml)+cisplatin (3 μg/ml)\n(§8) Six wells per condition were carried out to assess neuronal survival. After 48 hours and 72 hours of incubation, the neuronal cells were fixed for 5 minutes in an ethanol/acetic acid solution (95%/5%) at −20° C. and rinsed 3 times in PBS.\n(§9) Cell bodies of sensory neurones were labelled by monoclonal anti MAP-2 antibody (Sigma M4403) and the neurite of sensory neurones were labelled by monoclonal β-Tubulin antibody (Sigma T8660). These antibodies were diluted at 1:400 in incubation solution (PBS with 5% of FCS and 0.1% of saponin, Sigma S-7900). These antibodies specifically label neurone cell bodies and neuritis, respectively.\n(§10) After 2 hours of incubation, the cells were washed in PBS and incubated with Alexa Fluor 488 goat anti mouse IgG (Molecular Probes A11001) diluted at 1:300 in incubation solution to reveal the MAP-2 and the β-Tubulin antibodies. Cell nuclei were stained with a fluorescent marker (Hoechst staining solution, SIGMA H6024, 1 μg/ml in incubation solution during 1 hour).\n(§11) For each condition, 2 pictures per well (12 pictures per condition) were taken using In Cell Analyzer 1000 (Amersham Biosciences) controlled by the computer software In Cell Analyzer 1000 3.2. For the MAP-2 labelling, the magnification was ×10, for the β-Tubulin labelling, the magnification was ×20. For each labelling, all the images were taken in the same conditions.\n(§12) Analysis of the number of cell bodies labelled with anti-MAP-2 antibodies, and total length of neurites labelled with anti β-Tubulin antibodies, were carried out using In Cell Analyzer 1000 3.2.Workstation software. The results were expressed in percentage compared to the vehicle. The comparisons of each group were carried out using the unpaired T test."}, "rat sensory neurones [2]": {"test_system": "rat sensory neurones", "experiment": "Cisplatin-induced neuronal cell death, number of cell bodies per field in dorsal root ganglia sensory neurones (anti MAP-2)", "details": "10 ng/ml, cisplatin 3 μg/ml", "method": "as §1\nneurone cell bodies stained with an anti MAP 2 antibody (microtubule associated protein 2)\nas §2, §3, §4, §5, §6, §7, §8, §9, §10, §11, §12"}, "rat sensory neurones [3]": {"test_system": "rat sensory neurones", "experiment": "Neurite growth of sensory neurones in primary culture (anti β-Tubulin, In Cell Analyzer)", "method": "Rat sensory neurones were prepared according to the method described by Hall et al. 1997 (Hall A K, Ai X, Hickman G E, MacPhedran S E, Nduaguba C O, Robertson C P. The generation of neuronal heterogeneity in a rat sensory ganglion. J. Neurosci. 1997 Apr. 15; 17(8):2775-84). Briefly, female rats (15 days gestation) were killed by cervical dislocation (Rats Wistar; Janvier, Le Genest-St-Isle, France) and the foetuses removed from the uterus. Their spinal cords with the dorsal root ganglia (DRG) were removed and placed in ice-cold medium of Leibovitz (L15, Fisher 11415-049) containing Penicillin 50 Ul/ml-Streptomycin 50 pg/ml (PS, 1%) and bovine serum albuminutes (BSA 1%, Sigma A6003). The DRG were recovered and dissociated by trypsinisation for 20 minutes at 37° C. (trypsin EDTA 10×, 10%, Fisher 15400054) diluted in PBS without calcium and magnesium (Fisher 2007-03). The reaction was stopped by addition of Dulbecco modified Eagle medium (DMEM, Fisher 21969-035) containing DNase I grade II (0.1 mg/ml Roche diagnostic 104159) and foetal bovine serum (FBS 10%, Fisher 10270-098). The cell suspension was triturated with a 10 ml pipette and centrifuged at 350×g for 10 minutes at room temperature. The pellet of dissociated cells was then resuspended in defined culture medium.\nViable cells were counted in a Neubauer cytometer using the trypan blue exclusion test (Sigma) and seeded at a density of 25 000 cells/well in 96 well-plates (Nunc). Wells were pre-coated with poly-L-lysine (10 μg/ml, Sigma P2636) in ultra pure sterile water (Merck Eurolab 60759.01).\nCells were allowed to adhere for 2 hours and maintained in a humidified incubator at 37° C. in 5% CO2/95% air atmosphere.\nThe culture medium was changed into a defined culture medium after a 12 hours incubation period following the conditions described below:\nNGF 50 ng/ml and 10 ng/ml (in 0.1% DMSO)\nAfter 6 hours, 12 hours and 24 hours of incubation with 7β-OH EPIA, cells were fixed for 5 minutes in an ethanol/acetic acid solution (95%/5%) at −20° C. and rinsed 3 times in PBS.\nMotor neurones and sensory neurones were labelled by monoclonal anti β-Tubulin antibody (Sigma T8660) diluted at 1:400 in incubation solution (PBS with 5% of FCS and 0.1% of saponin, Sigma S-7900). This antibody specifically labels neurone cell bodies and neurites.\nAfter 2 hours of incubation, the cells were washed in PBS and incubated with Alexa Fluor 488 goat anti mouse IgG (Molecular Probes A11001) diluted at 1:300 in incubation solution to reveal the 8-Tubulin III antibodies.\nAnalysis of the total length of neurones labelled with anti β-Tubulin antibodies (neurones) were carried out using In Cell Analyzer 1000 3.2.Workstation software.\nThe results were expressed in percentage compared to the vehicle. Comparison of groups was carried out using the unpaired T test."}}, "note": "Several values for one entry are separate records, joined by “and”; a condition that tells them apart may be missing. Identical values can stand only once.", "data": [{"compound": "COc1ccc2c(c1)c(CC(=O)O)c(C)n2C(=O)c1ccc(Cl)cc1", "note": "[Indomethacin]", "values": [{"measurement": "antagonism of the protective effect of 7β-OH-EPIA", "setting": "PC-12 cells; 10 μM indomethacin with 1 μM and 10 μM 7β-OH-EPIA", "value": "fully antagonised"}, {"measurement": "decrease in cell death", "setting": "PC-12 cells; 10 μM", "value": "no direct effect"}, {"measurement": "decrease in cell death", "setting": "PC-12 cells; 100 μM", "value": 29, "unit": "%"}]}, {"compound": "NGF: Nerve Growth Factor, a specific growth factor for sensory neurones; reference compound", "values": [{"measurement": "% Control without cisplatin (neurite length)", "setting": "rat sensory neurones [1]; 48 hours", "value": 117, "unit": "%"}, {"measurement": "Mean neurite length", "setting": "rat sensory neurones [1]; 48 hours", "value": 6362.44, "unit": "μm"}, {"measurement": "% Control without cisplatin (neurite length)", "setting": "rat sensory neurones [1]; 72 hours", "value": 113, "unit": "%"}, {"measurement": "Mean neurite length", "setting": "rat sensory neurones [1]; 72 hours", "value": 6000.30, "unit": "μm"}, {"measurement": "% Control without cisplatin (cell bodies)", "setting": "rat sensory neurones [2]; 48 hours", "value": 96, "unit": "%"}, {"measurement": "number of cell bodies per field, Average", "setting": "rat sensory neurones [2]; 48 hours", "value": 58.33}, {"measurement": "% Control without cisplatin (cell bodies)", "setting": "rat sensory neurones [2]; 72 hours", "value": 1.2, "unit": "%"}, {"measurement": "number of cell bodies per field, Average", "setting": "rat sensory neurones [2]; 72 hours", "value": 54.92}, {"measurement": "Neurites length per field, % Vehicle", "setting": "rat sensory neurones [3]; 10 ng/ml, 6 hours", "value": 191, "unit": "%"}, {"measurement": "Neurites length per field, Mean", "setting": "rat sensory neurones [3]; 10 ng/ml, 6 hours", "value": 195.2, "unit": "μm"}, {"measurement": "Neurites length per field, % Vehicle", "setting": "rat sensory neurones [3]; 10 ng/ml, 12 hours", "value": 128, "unit": "%"}, {"measurement": "Neurites length per field, Mean", "setting": "rat sensory neurones [3]; 10 ng/ml, 12 hours", "value": 381.3, "unit": "μm"}, {"measurement": "Neurites length per field, % Vehicle", "setting": "rat sensory neurones [3]; 10 ng/ml, 24 hours", "value": 371, "unit": "%"}, {"measurement": "Neurites length per field, Mean", "setting": "rat sensory neurones [3]; 10 ng/ml, 24 hours", "value": 819.9, "unit": "μm"}, {"measurement": "Neurites length per field, % Vehicle", "setting": "rat sensory neurones [3]; 50 ng/ml, 6 hours", "value": 273, "unit": "%"}, {"measurement": "Neurites length per field, Mean", "setting": "rat sensory neurones [3]; 50 ng/ml, 6 hours", "value": 279.1, "unit": "μm"}, {"measurement": "Neurites length per field, % Vehicle", "setting": "rat sensory neurones [3]; 50 ng/ml, 12 hours", "value": 216, "unit": "%"}, {"measurement": "Neurites length per field, Mean", "setting": "rat sensory neurones [3]; 50 ng/ml, 12 hours", "value": 644.3, "unit": "μm"}, {"measurement": "Neurites length per field, % Vehicle", "setting": "rat sensory neurones [3]; 50 ng/ml, 24 hours", "value": 309, "unit": "%"}, {"measurement": "Neurites length per field, Mean", "setting": "rat sensory neurones [3]; 50 ng/ml, 24 hours", "value": 682.1, "unit": "μm"}]}, {"compound": "C[C@]12N[C@H](Cc3ccccc31)c1ccccc12", "note": "[MK801]", "values": [{"measurement": "decrease in cell death", "setting": "PC-12 cells; 10 μM", "value": "62% and 42%"}]}]}
